Results from patent US8362000B2, “Azetidinyl diamides as monoacylglycerol lipase inhibitors” (Janssen Pharmaceutica NV, priority 2009, dated 2013).
Substitutions are numbered along the chain they refer to. Where two headings read alike, the source gives them in different places.

Key:
mutant MGL = biological target: T1, mutant MGL (Homo sapiens, UniProt Q99685, L169S/L176S); test: MGL ThermoFluor assay - mutant; format: binding
T1 sequence (Q99685 1-303 L169S/L176S): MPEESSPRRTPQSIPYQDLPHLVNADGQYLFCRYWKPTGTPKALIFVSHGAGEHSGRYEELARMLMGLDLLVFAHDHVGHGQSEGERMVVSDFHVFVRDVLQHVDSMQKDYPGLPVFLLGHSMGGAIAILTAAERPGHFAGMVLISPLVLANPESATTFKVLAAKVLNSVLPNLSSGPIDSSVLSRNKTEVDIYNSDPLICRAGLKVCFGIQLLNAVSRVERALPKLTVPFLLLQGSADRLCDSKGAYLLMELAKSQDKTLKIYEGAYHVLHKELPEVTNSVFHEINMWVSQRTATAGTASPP

[1] = biological target: T2, purified wild type MGL (wt-MGLL 6H-11-313) (Homo sapiens, UniProt Q99685)
T2 sequence (Q99685 1-303): T1 sequence (Q99685 1-303 L169S/L176S) with S169L, S176L

[2] = ThermoFluor, compound concentration measured by qNMR, read-out: MGL mutant ThermoFluor qKd (μM) (using qNMR conc.)
[3] = ThermoFluor concentration-response, read-out: MGL mutant ThermoFluor Kd
[4] = ThermoFluor thermal stability binding assay, read-out: MGL mutant ThermoFluor Kd
[5] = compound concentration measured by qNMR, read-out: MGL mutant ThermoFluor qKd (using qNMR conc.)

SMILES | Kd (mutant MGL; [2]) | IC50 [1] | Kd (mutant MGL; [3]) | Kd (mutant MGL; [4]) | Kd (mutant MGL; [5])
O=C(c1cc(Br)cs1)N1CC(N2CCN(C(=O)c3nccs3)CC2)C1 [Cpd 806] | 0.989 µM | 2050 nM |  |  | 
O=C(c1ccc2c(c1)[nH]c(=O)n2-c1ccc(F)cc1)N1CC(N2CCN(C(=O)c3nccs3)CC2)C1 [Cpd 934, 1-(4-Fluorophenyl)-5-({3-[4-(1,3-thiazol-2-ylcarbonyl)piperazin-1-yl]azetidin-1-yl}carbonyl)-1,3-dihydro-2H-benzimidazol-2-one] |  | 174 nM | 0.025 µM |  | 
O=C(c1ccc(-c2cccc(C(F)(F)F)c2)cc1)N1CC(N2CCN(C(=O)c3ccno3)CC2)C1 [Cpd 1118] | 0.053 µM | 16 nM |  |  | 
O=C(c1ccc2c(c1)CCN(C(=O)C1CCC(F)(F)CC1)C2)N1CC(N2CCN(C(=O)c3nccs3)CC2)C1 [Cpd 729] |  | 236 nM |  | 0.185 µM | 
O=C(c1cscn1)N1CCN(C2CN(C(=O)c3sc4cc(C(F)(F)F)ccc4c3Cl)C2)C(C(F)(F)F)C1 (centres unmarked) [Cpd 801] |  | 1710 nM |  | 52.5 µM | 
CN(C(=O)Cn1ccc2cc(C(=O)N3CC(N4CCN(C(=O)c5cscn5)CC4)C3)ccc21)c1ccccc1 [Cpd 1032] |  | 3020 nM |  |  | 1.1 µM
O=C(c1ccc(-n2cnc3ccccc32)cc1)N1CCN(C2CN(C(=O)c3ccccc3)C2)CC1 [Cpd 610] |  | 10300 nM | 1.29 µM |  | 
O=C(c1ccc2c(c1)C(Cc1cccc(C(F)(F)F)c1)(Cc1cccc(C(F)(F)F)c1)C(=O)N2)N1CC(N2CCN(C(=O)c3nccs3)CC2)C1 [Cpd 992] |  | 7760 nM | 0.561 µM |  | 
O=C(c1cccnc1)c1c[nH]c2cc(C(=O)N3CC(N4CCN(C(=O)c5nccs5)CC4)C3)ccc12 [Cpd 950] |  | 1500 nM |  |  | 0.883 µM
COc1cncc(-c2ccc3[nH]c(C(=O)N4CC(N5CCN(C(=O)c6nccs6)CC5)C4)c(C)c3c2)c1 [Cpd 1175] | 0.01 µM | 66 nM |  |  | 
O=C(c1ccccc1)N1CCN(C2CN(C(=O)c3ccc4c(cnn4-c4ccc(F)c(F)c4)c3)C2)CC1 [Cpd 590] | 0.182 µM | 186 nM |  |  | 
Cc1ccc2c(C(F)(F)F)c(C(=O)N3CC(N4CCN(C(=O)c5cscn5)CC4)C3)sc2c1 [Cpd 712, 1-(1-{[6-Methyl-3-(trifluoromethyl)-1-benzothiophen-2-yl]carbonyl}azetidin-3-yl)-4-(1,3-thiazol-4-ylcarbonyl)piperazine] |  | 127 nM | 0.028 µM |  | 
O=C(c1ccc2c(cnn2-c2ccc(C(F)(F)F)cc2)c1)N1CC(N2CCN(C(=O)c3nccs3)CC2)C1 [Cpd 1080] | 0.006 µM | 9 nM |  |  | 

More lines, now with the values ahead:

Kd (mutant MGL; [2]) | IC50 [1] | Kd (mutant MGL; [3]) | Kd (mutant MGL; [4]) | Kd (mutant MGL; [5]) | SMILES
 | 2510 nM | 2.16 µM |  |  | O=C(c1cscn1)N1CCN(C2CN(C(=O)c3cc(-c4ccccc4)ccc3Cl)C2)CC1 [Cpd 1288]
0.018 µM | 14 nM |  |  |  | O=C(c1ccc2c(ccn2-c2ccc(F)cc2)c1)N1CC(N2CCN(C(=O)c3cocn3)CC2)C1 [Cpd 1428]
0.003 µM | < 5 nM |  |  |  | Cc1cc(-n2ccc3cc(C(=O)N4CC(N5CCN(C(=O)c6nccs6)CC5)C4)ccc32)ccc1C#N [Cpd 1375, 2-Methyl-4-[5-({3-[4-(1,3-thiazol-2-ylcarbonyl)piperazin-1-yl]azetidin-1-yl}carbonyl)-1H-indol-1-yl]benzonitrile]
> 16.2 µM | > 16700 nM |  |  |  | Cc1cc2nc(C(=O)N3CC(N4CCN(C(=O)c5ccc[nH]5)CC4)C3)cn2cc1Br [Cpd 1451]
 | 950 nM |  | 0.278 µM |  | O=C(c1ccc(-c2ccccc2)cc1)N1CC(N2CCN(C(=O)c3ccon3)CC2)C1 [Cpd 1262]
0.01 µM | 6 nM |  |  |  | O=C(c1ccc2c(ccn2-c2ccc(F)cc2)c1)N1CC(N2CCN(C(=O)c3ccc(F)s3)CC2)C1 [Cpd 1427]
 | > 16700 nM |  | 62.5 µM |  | O=C(c1ccc[nH]1)N1CCN(C2CN(C(=O)c3cc4ccc(C(F)(F)F)nc4o3)C2)CC1 [Cpd 1446]
0.195 µM | 14 nM |  |  |  | O=C(c1ccc2nn(-c3cccc(OC(F)(F)F)c3)cc2c1)N1CC(N2CCN(C(=O)c3cscn3)CC2)C1 [Cpd 1422]
 | 3300 nM |  |  | 0.197 µM | Cc1nc2cc(C(=O)N3CC(N4CCN(C(=O)c5cscn5)CC4)C3)ccc2n1-c1ccccc1 [Cpd 1296]
